Laboratory results: patent publication US4169197A, “6-Deoxyneamines aminoglycoside compounds” (The Upjohn Company, priority 1978, dated 1979)
Values after ≈ are worked out from the molar mass of the structure shown. Where two headings read alike, the source gives them in different places.

Legend:
Format in all cases: cell-based
[1] = system: B. cereus UC 3145; assay: standard disc plate assay, zones of inhibition; conditions: Bacillus cereus, 12.5 mm paper discs; for zone of inhibition at 100 µg/mL: UC3145, read-out: Zones of Inhibition, 0.1 mg/ml; for zone of inhibition at 1000 µg/mL: UC3145, read-out: Zones of Inhibition, 1 mg/ml
How it was run: (§1)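 Disc plate method, 12.5 mm paper discs; read-out = inhibition zone around disc.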

[2] = system: E. coli UC 51; assay: standard disc plate assay, zones of inhibition; conditions: Escherichia coli, 12.5 mm paper discs; for zone of inhibition at 100 µg/mL: UC51, read-out: Zones of Inhibition, 0.1 mg/ml; for zone of inhibition at 1000 µg/mL: UC51, read-out: Zones of Inhibition, 1 mg/ml
How it was run: as §1

[3] = system: P. vulgaris UC 93; assay: standard disc plate assay, zones of inhibition; conditions: Proteus vulgaris, 12.5 mm paper discs; for zone of inhibition at 100 µg/mL: UC93, read-out: Zones of Inhibition, 0.1 mg/ml; for zone of inhibition at 1000 µg/mL: UC93, read-out: Zones of Inhibition, 1 mg/ml
How it was run: as §1

[4] = system: Ps. aeruginosa UC 95; assay: standard disc plate assay, zones of inhibition; conditions: Pseudomonas aeruginosa, UC95, read-out: Zones of Inhibition, 1 mg/ml, 12.5 mm paper discs
How it was run: as §1

[5] = system: S. aureus UC 80; assay: standard disc plate assay, zones of inhibition; conditions: Staphylococcus aureus, 12.5 mm paper discs; for zone of inhibition at 100 µg/mL: UC80, read-out: Zones of Inhibition, 0.1 mg/ml; for zone of inhibition at 1000 µg/mL: UC80, read-out: Zones of Inhibition, 1 mg/ml
How it was run: as §1

[6] = system: S. gallinarum UC 265; assay: standard disc plate assay, zones of inhibition; conditions: for Zones of Inhibition: 12.5 mm paper discs, Table II
How it was run: as §1

[7] = system: S. lutea UC 130; assay: standard disc plate assay, zones of inhibition
How it was run: as §1

[8] = system: S. schottmuelleri UC 126; assay: standard disc plate assay, zones of inhibition; conditions: 12.5 mm paper discs; for zone of inhibition at 100 µg/mL: 0.1 mg/ml; for zone of inhibition at 1000 µg/mL: 1 mg/ml
How it was run: as §1

[9] = system: E. coli UC 311; assay: standard microplate test in BHI Agar; conditions: Escherichia coli, UC311, 20 h, read-out: Minimal Inhibitory Concentration
How it was run: (§2)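 Read-out: end points at 20 h. Test conditions: BHI agar microplate, compound at 1 mg./ml. plus serial dilutions, incubated at 37°.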

[10] = system: E. coli UC 45; assay: standard microplate test in BHI Agar; conditions: Escherichia coli, UC45, 37°, 20 hours, Table III, read-out: Minimum Inhibitory Concentration
How it was run: as §2

[11] = system: K. pneumoniae UC 58; assay: standard microplate test in BHI Agar; conditions: Klebsiella pneumoniae, UC58, 20 h
How it was run: as §2

[12] = system: P. mirabilis UC 6671; assay: standard microplate test in BHI Agar; conditions: Proteus mirabilis, UC6671, 20 h
How it was run: as §2

[13] = system: P. morganii UC 3186; assay: standard microplate test in BHI Agar; conditions: Morganella morganii, UC3186, 20 h
How it was run: as §2

[14] = system: P. rettgeri UC 339; assay: standard microplate test in BHI Agar; conditions: Providencia rettgeri, UC339, 20 h
How it was run: as §2

[15] = system: P. vulgaris UC 93; assay: standard microplate test in BHI Agar; conditions: Proteus vulgaris, UC93, 20 h
How it was run: as §2

[16] = system: Ps. aeruginosa UC 95; assay: standard microplate test in BHI Agar; conditions: Pseudomonas aeruginosa, UC95, 20 h
How it was run: as §2

[17] = system: S. aureus UC 76; assay: standard microplate test in BHI Agar; conditions: Staphylococcus aureus, UC76, 20 h
How it was run: as §2

[18] = system: S. faecalis UC 694; assay: standard microplate test in BHI Agar; conditions: Enterococcus faecalis, UC694, 20 h
How it was run: as §2

[19] = system: S. flexneri UC 143; assay: standard microplate test in BHI Agar; conditions: Shigella flexneri, UC143, 37°, 20 hours
How it was run: as §2

[20] = system: S. marcescens UC 131; assay: standard microplate test in BHI Agar; conditions: Serratia marcescens, UC131, 20 h
How it was run: as §2

[21] = system: S. pneumoniae I UC 41; assay: standard microplate test in BHI Agar; conditions: Streptococcus pneumoniae, UC41, 20 h
How it was run: as §2

[22] = system: S. pyogenes UC 152; assay: standard microplate test in BHI Agar; conditions: Streptococcus pyogenes, UC152, 20 h
How it was run: as §2

[23] = system: S. schottmuelleri UC 126; assay: standard microplate test in BHI Agar; conditions: 37°, 20 hours
How it was run: as §2

[24] = system: S. typhi UC 215; assay: standard microplate test in BHI Agar; conditions: Salmonella enterica, BHI Agar, 37°, 20 hours
How it was run: as §2

[25] = Salmonella enterica, read-out: Zones of Inhibition
[26] = read-out: Minimal Inhibitory Concentration
[27] = read-out: Minimum Inhibitory Concentration
[28] = Table III, read-out: Minimum Inhibitory Concentration
[29] = Table IV, read-out: Minimal Inhibitory Concentration

NC[C@H]1O[C@H](O[C@H]2[C@H](O)[C@@H](O)[C@H](N)C[C@@H]2N)[C@H](N)[C@@H](O)[C@@H]1O [Neamine]
zone of inhibition at 100 µg/mL ([1]; Table I): 15 mm | zone of inhibition at 100 µg/mL ([1]; Table II): 15 mm | zone of inhibition at 1000 µg/mL ([1]; Table I): 24 mm | zone of inhibition at 1000 µg/mL ([1]; Table II): 23 mm | zone of inhibition at 100 µg/mL ([2]; Table I): 19 mm | zone of inhibition at 100 µg/mL ([2]; Table II): 18 mm | zone of inhibition at 1000 µg/mL ([2]; Table I): 27 mm | zone of inhibition at 1000 µg/mL ([2]; Table II): 25 mm | zone of inhibition at 100 µg/mL ([3]; Table I): 18 mm | zone of inhibition at 100 µg/mL ([3]; Table II): 15 mm | zone of inhibition at 1000 µg/mL ([3]; Table I): 27 mm | zone of inhibition at 1000 µg/mL ([3]; Table II): 28 mm | zone of inhibition at 1000 µg/mL ([4]; Table I): 17 mm | zone of inhibition at 1000 µg/mL ([4]; Table II): 18 mm | zone of inhibition at 100 µg/mL ([5]; Table I): 20 mm | zone of inhibition at 100 µg/mL ([5]; Table II): 18 mm | zone of inhibition at 1000 µg/mL ([5]; Table I): 29 mm | zone of inhibition at 1000 µg/mL ([5]; Table II): 26 mm | Zones of Inhibition ([6]; 0.1 mg/ml): 19 mm | Zones of Inhibition ([6]; 1 mg/ml): 29 mm | zone of inhibition at 100 µg/mL [6, 25]: 19 mm | zone of inhibition at 1000 µg/mL [6, 25]: 29 mm | Zones of Inhibition ([7]; 1 mg/ml, 12.5 mm paper discs, Table II): 17 mm | zone of inhibition at 1000 µg/mL ([7]; Micrococcus luteus, UC130, read-out: Zones of Inhibition): 17 mm | zone of inhibition at 100 µg/mL ([8]; Table I): 16 mm | zone of inhibition at 100 µg/mL ([8]; Table II): 15 mm | zone of inhibition at 1000 µg/mL ([8]; Table I): 24 mm | zone of inhibition at 1000 µg/mL ([8]; Table II): 23 mm | MIC [9]: 125 µg/mL (≈ 388 µM) | MIC [10]: 62.5 µg/mL (≈ 194 µM) | MIC [11, 26]: 7.8 µg/mL (≈ 24.2 µM) | MIC [11, 27]: 15.6 µg/mL (≈ 48.4 µM) | MIC [12, 26]: 250 µg/mL (≈ 776 µM) | MIC [12, 27]: 62.5 µg/mL (≈ 194 µM) | MIC [13, 26]: 31.2 µg/mL (≈ 96.8 µM) | MIC [13, 27]: 62.5 µg/mL (≈ 194 µM) | MIC [14, 26]: > 500 µg/mL | MIC [14, 27]: 250 µg/mL (≈ 776 µM) | MIC [15, 26]: 62.5 µg/mL (≈ 194 µM) | MIC [15, 27]: 62.5 µg/mL (≈ 194 µM) | MIC [16, 26]: > 500 µg/mL | MIC [16, 27]: > 500 µg/mL | MIC [17, 26]: 7.8 µg/mL (≈ 24.2 µM) | MIC [17, 27]: 3.9 µg/mL (≈ 12.1 µM) | MIC [18, 26]: > 500 µg/mL | MIC [18, 27]: > 500 µg/mL | MIC [19, 28]: 62.5 µg/mL (≈ 194 µM) | MIC [19, 29]: 125 µg/mL (≈ 388 µM) | MIC [20, 26]: 250 µg/mL (≈ 776 µM) | MIC [20, 27]: 250 µg/mL (≈ 776 µM) | MIC [21, 26]: 62.5 µg/mL (≈ 194 µM) | MIC [21, 27]: 62.5 µg/mL (≈ 194 µM) | MIC [22, 26]: 7.8 µg/mL (≈ 24.2 µM) | MIC [22, 27]: 7.8 µg/mL (≈ 24.2 µM) | MIC [23, 28]: 31.2 µg/mL (≈ 96.8 µM) | MIC [23, 29]: 15.6 µg/mL (≈ 48.4 µM) | MIC [24, 28]: 15.6 µg/mL (≈ 48.4 µM) | MIC [24, 29]: 31.2 µg/mL (≈ 96.8 µM)
